Experiment [1] has as its system laser-induced CNV. The experiment can be described thus: Isolectin B4 and collagen IV staining of RPE/choroidal/sclera wholemounts in laser-induced CNV model. The format is in vivo, C57BL/6J mice. How it is done:
Mice were anaesthetized with an intraperitoneal injection of 75 mg/kg ketamine and 7.5 mg/kg xylazine. The pupils were dilated with 1% atropine and 2.5% phenylephrine (Bausch & Lomb). To induce CNV, the rupture of Bruch's membrane-choroid was achieved by laser photocoagulation using the HGM Elite 532 Green Laser (Litechnica Ltd, Middesex, UK) with the spot size of 100 μm, 250 mW power and 100 msec duration. The laser spots were placed between retinal vessels and 2 to 3 disc-diameter away from the optic disc. The formation of a bubble at the site of laser application indicates the successful rupture of Bruch's membrane. Only laser burns in which a bubble was produced were included in this study. […] Three laser burns were applied to each retina.
Immediately after CNV induction, all mice were injected subcutaneously with 500 μl of dextran sulfate or saline. The injection was repeated once daily for 9 days post laser-CNV induction.
On day 10 post-CNV induction, all mice were sacrificed and eyes were carefully removed. All eyes were fixed in 2% paraformaldehyde/PBS (Sigma-Aldrich, Dorset, UK) for 2 h at room temperature and then washed and stored in PBS at 4° C. RPE-choroid-sclera wholemounts were prepared using the protocol described. Briefly, the anterior segment of the eye, including the cornea, ciliary body, iris and the lens were removed. Five vertical cuts were made to the eye cup, and the retinal tissue was then carefully removed. The extra ocular tissues, including conjunctiva and ocular muscles were carefully removed from the eye-cup (containing RPE/choroid/sclera). The RPE/choroidal/sclera wholemounts were further processed for Griffonia simplicifolia lectin 1-isolectin B4 and collagen IV immunostaining.
CNV was detected using the well-established isolectin B4 and collagen IV labelling technique. Isolectin B4 labels both infiltrating macrophages and vascular endothelial cells. Collagen IV labels the basal lamina of blood vessels. Both markers have been used widely to detect CNV.
RPE/choroidal/sclera wholemounts were permeablized with 0.5% Triton X-100/PBS for 1 h at room temperature. The samples were then blocked with 10% BSA in 0.5% Triton X-100/PBS for 1 h and incubated with biotinylated Griffonia simplicifolia lectin 1-isolectin B4 (GSL Isolectin B4, 1:50, Vector Laboratories Ltd, UK) and collagen IV (1:50, BIO-RAD, UK) overnight at 4° C. After thorough washing in PBS (10 minutes×3), samples were incubated with streptavidin-fluorescein isothiocyanate (FITC) (1:100, Vector laboratories, UK) and goat anti rabbit AF594 (1:100, Invitrogen, UK) for two hours at room temperature. Samples were flat-mounted on glass slides with Vectashield Mounting Medium (Vector Laboratories Ltd, UK) and observed by fluorescent microscopy.
Lecia fluorescent microscope was used to acquire images from above prepared RPE-choroidal/sclera wholemount samples. A 10× objective lens was used to allow capturing the whole area of a CNV. The imaging software ImageJ was used to analyze the images. To measure the size of CNV, the border of CNV was outlined manually and the size was automatically calculated using Image J software.
All data (the size of CNV in each group) were expressed as mean±SEM. Student t test was used to compare the difference between the dextran sulfate group and the saline control group.
24 C57BL/6J mice (10˜12 weeks old) were used in this study. […]

The subject of experiment [2] is retinal ganglion cell (RGC). The experiment is described as follows: Retinal ganglion cell counts by immunohistochemistry in TGF-β-induced glaucoma model. Type of experiment: in vivo, Sprague Dawley rats. The note with it: rat TGF-β glaucoma model; day 28; vs saline. How it is done: Glaucoma was induced in adult male Sprague Dawley rats by repeat twice weekly intracameral (IC) injections of transforming growth factor-β (TGF-β) to increase intraocular pressure (IOP). Sustained increases in IOP (after two weeks) leads to death of retinal ganglion cells (30-40%). Dextran sulfate (Tikomed AB, Sweden, WO 2016/076780) was administered at 15 mg/kg by daily subcutaneous injection from […] to assess RGC protection compared to controls.
Measured End-Points • IOP twice weekly throughout study from day 0 to day 28; • Immunohistochemistry for counting RGC that are immunoreactive for brain-specific homeobox/POU domain protein 3A (Brn3a) at day 28 (RGC survival); • Immunohistochemistry for laminin and fibronectin to evaluate scarring in the trabecular meshwork at day 28 in Groups 1 and 2; • Anterior segment and OCT imaging at day 28 to examine the angle and the thickness of the retinal nerve fiber layer comprising RGC axons; and • Body weight at day 28. […]
For quantification of RGC in retinal sections, RPBMS^+/DAPI^+ RGC were counted in 15 μm thick parasagittal sections of retina from a 250 μm linear portion from the ganglion cell layer at either side of the optic nerve. Four retinal sections from each eye in the control and treatment groups were quantified. […]

[3] abbreviates: mouse laser-CNV, day 10, 0.6 mg/ml, 500 μl s.c. once daily, mean±SEM.

Consider 1 substance from US11291684B2, “Treatment of glaucoma” (TX MEDIC AB, priority 2017, dated 2022).

dextran sulfate: in experiment [1] (dose of 0.6 mg/ml per day), the “effects on the laser-induced CNV” value is “neither anti-angiogenic nor pro-angiogenic effects”. In experiment [1] (mouse laser-CNV, day 10), the “difference vs saline control in lectin B4+ lesions” value is listed as “no statistical difference” and the “difference vs vehicle (saline) in collagen IV new blood vessel area” value was “no statistical significant difference”. In experiment [1] (setting [3]), the “average isolectin B4 positive area” value is on record as 43972±2302 μm^2 and the “means of area of new blood vessels (collagen IV)” value was 54681±2378 μm^2. For the same substance, the “decline in RGC numbers present in the retina” value in experiment [2] is “significantly prevented”.
